What was measured:
BdorCSP2 [1] = target: T1, BdorCSP2 (Bactrocera dorsalis, UniProt S5TKX2); test: fluorescent probe titration with Scatchard analysis; format: binding
T1 construct: gene CSP2; mature BdorCSP2 (signal peptide removed), recombinant from E. coli BL21 (DE3), His-tag-removed; GenBank KC897022
T1 sequence (S5TKX2 23-156): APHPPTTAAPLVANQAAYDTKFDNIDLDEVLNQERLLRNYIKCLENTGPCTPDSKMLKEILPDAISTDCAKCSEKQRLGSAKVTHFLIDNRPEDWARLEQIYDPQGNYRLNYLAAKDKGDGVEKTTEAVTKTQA

BdorCSP2 [2] = target: T1, BdorCSP2; test: competitive fluorescence binding assay, displacement of 1-NPN

SMILES: c1ccc(Nc2cccc3ccccc23)cc1 [N-phenyl-1-naphthylamine]
- Kd (BdorCSP2 [1]): 2.71 µM

SMILES: CC1(C)[C@H]2O[C@H]2[C@H]2[C@](C)(O)[C@@H]3CC[C@@H]4[C@@H](O)[C@@]3(C[C@@H](O)[C@@]21O)C[C@@]4(C)O [Rhodojaponin-III]
- Kd (BdorCSP2 [2]): 34.6 µM

— article PMC3796470, “BdorCSP2 Is Important for Antifeed and Oviposition-Deterring Activities Induced by Rhodojaponin-III against Bactrocera dorsalis” (PLoS ONE, 2013)
